Measured values reported in patent US20130012432A1, “Peptides for Treatment of Obesity” (Novo Nordisk A/S, priority 2010, published 2013).
Values after ≈ are worked out from the molar mass of the structure shown. Positions of bridges follow the written chain, without caps; N, C: chain ends. Non-standard residues stand in square brackets, D forms with d. Residues, ends and D or L forms follow the SMILES beside them. Groups on a side chain read outwards from the residue. *: point of attachment. Palmitoyl(16-(5-tetrazolyl)) = O=C(CCCCCCCCCCCCCCCc1nnn[nH]1)*; Lys(CH2CO2H)2 = N[C@@H](CCCCN(CC(=O)O)CC(=O)O)C(=O)O; C16 diacid = O=C(O)CCCCCCCCCCCCCCC(=O)*; Orn = NCCC[C@H](N)C(=O)O; Dab = NCC[C@H](N)C(=O)O; Dap = NC[C@H](N)C(=O)O; AEEA = NCCOCCOCC(=O)O

Assay: physchem
Protocol: From a stock solution in vehicle, either H2O or 10 mM phosphate, containing 1 mg (as weighed) compound per ml, 8-11 aliquots are withdrawn and pH-adjusted individually with HCl/NaOH, to cover the whole pH range.

## CC(=O)N[C@H]1CCNC(=O)C[C@@H](C(=O)N2CCC[C@H]2C(=O)N2CCC[C@H]2C(=O)N[C@@H](CCCNC(=N)N)C(=O)N[C@@H](CC(=O)O)C(=O)N[C@@H](CCCCN(CC(=O)O)CC(=O)O)C(=O)N[C@@H](CCCCNC(=O)COCCOCCNC(=O)CCCCCCCCCCCCCCCc2nnn[nH]2)C(N)=O)NC(=O)[C@H](Cc2c[nH]c3ccccc23)NC(=O)[C@H](CCCNC(=N)N)NC(=O)[C@@H](Cc2ccccc2)NC(=O)[C@H](Cc2c[nH]cn2)NC1=O [Example 25, Ac-c[Dab-His-D-Phe-Arg-Trp-Asp]-Pro-Pro-Arg-Asp-Lys(biscarboxymethyl)-Lys[(2-{2-[16-(tetrazol-5-yl)hexadecanoylamino]ethoxy}ethoxy)acetyl]-NH2] (Ac-[Dab]H[dF]RWDPPRD[Lys(CH2CO2H)2]K([AEEA-Palmitoyl(16-(5-tetrazolyl))])-NH2; lactam 1-6)
pH 6, Solubility Conc.
  solubility: 24 µM (≈ 52.1 µg/mL)
pH 6.3, Solubility Conc.
  solubility: 34 µM (≈ 73.9 µg/mL)
pH 7, Solubility Conc.
  solubility: 133 µM (≈ 289 µg/mL)
pH 7.3, Solubility Conc.
  solubility: 439 µM (≈ 954 µg/mL)
pH 7.4, Solubility Conc.
  solubility: 472 µM (≈ 1030 µg/mL)
pH 7.5, Solubility Conc.
  solubility: 479 µM (≈ 1040 µg/mL)
pH 7.7, Solubility Conc.
  solubility: 471 µM (≈ 1020 µg/mL)
pH 8, Solubility Conc.
  solubility: 498 µM (≈ 1080 µg/mL)

## CC(=O)N[C@H]1CC(=O)NCC[C@@H](C(=O)N2CCC[C@H]2C(=O)N2CCC[C@H]2C(=O)N[C@@H](CCCNC(=N)N)C(=O)N[C@@H](CC(=O)O)C(=O)N[C@@H](CCCCN(CC(=O)O)CC(=O)O)C(=O)N[C@@H](CCCCNC(=O)COCCOCCNC(=O)CCCCCCCCCCCCCCCc2nnn[nH]2)C(N)=O)NC(=O)[C@H](Cc2c[nH]c3ccccc23)NC(=O)[C@H](CCCNC(=N)N)NC(=O)[C@@H](Cc2ccccc2)NC(=O)[C@H](Cc2c[nH]cn2)NC1=O [Example 30, Ac-c[Asp-His-D-Phe-Arg-Trp-Dab]-Pro-Pro-Arg-Asp-Lys(biscarboxymethyl)-Lys[(2-{2-[16-(tetrazol-5-yl)hexadecanoylamino]ethoxy}ethoxy)acetyl]-NH2] (Ac-DH[dF]RW[Dab]PPRD[Lys(CH2CO2H)2]K([AEEA-Palmitoyl(16-(5-tetrazolyl))])-NH2; lactam 1-6)
pH 5.9, Solubility Conc.
  solubility: 24 µM (≈ 52.1 µg/mL)
pH 6.4, Solubility Conc.
  solubility: 37 µM (≈ 80.4 µg/mL)
pH 7, Solubility Conc.
  solubility: 144 µM (≈ 313 µg/mL)
pH 7.3, Solubility Conc.
  solubility: 377 µM (≈ 819 µg/mL)
pH 7.5, Solubility Conc.
  solubility: 478 µM (≈ 1040 µg/mL)
pH 7.6, Solubility Conc.
  solubility: 493 µM (≈ 1070 µg/mL)
pH 7.9, Solubility Conc.
  solubility: 497 µM (≈ 1080 µg/mL)

## CC(=O)N[C@H]1CNC(=O)C[C@@H](C(=O)N2CCC[C@H]2C(=O)N2CCC[C@H]2C(=O)N[C@@H](CCCNC(=N)N)C(=O)N[C@@H](CC(=O)O)C(=O)N[C@@H](CCCCN(CC(=O)O)CC(=O)O)C(=O)N[C@@H](CCCCNC(=O)COCCOCCNC(=O)CCCCCCCCCCCCCCCc2nnn[nH]2)C(N)=O)NC(=O)[C@H](Cc2c[nH]c3ccccc23)NC(=O)[C@H](CCCNC(=N)N)NC(=O)[C@@H](Cc2ccccc2)NC(=O)[C@H](Cc2c[nH]cn2)NC1=O [Example 36, Ac-c[Dap-His-D-Phe-Arg-Trp-Asp]-Pro-Pro-Arg-Asp-Lys(biscarboxymethyl)-Lys[(2-{2-[16-(tetrazol-5-yl)hexadecanoylamino]ethoxy}ethoxy)acetyl]-NH2] (Ac-[Dap]H[dF]RWDPPRD[Lys(CH2CO2H)2]K([AEEA-Palmitoyl(16-(5-tetrazolyl))])-NH2; lactam 1-6)
pH 5.7, Solubility Conc.
  solubility: 17 µM (≈ 36.7 µg/mL)
pH 6, Solubility Conc.
  solubility: 18 µM (≈ 38.9 µg/mL)
pH 6.5, Solubility Conc.
  solubility: 28 µM (≈ 60.4 µg/mL)
pH 7.1, Solubility Conc.
  solubility: 87 µM (≈ 188 µg/mL)
pH 7.4, Solubility Conc.
  solubility: 261 µM (≈ 563 µg/mL)
pH 7.5, Solubility Conc.
  solubility: 488 µM (≈ 1050 µg/mL)
pH 7.6, Solubility Conc.
  solubility: 504 µM (≈ 1090 µg/mL)
pH 7.9, Solubility Conc.
  solubility: 514 µM (≈ 1110 µg/mL)
pH 8.1, Solubility Conc.
  solubility: 505 µM (≈ 1090 µg/mL)

## CC(=O)N[C@H]1CCCNC(=O)C[C@@H](C(=O)N2CCC[C@H]2C(=O)N2CCC[C@H]2C(=O)N[C@@H](CCCNC(=N)N)C(=O)N[C@@H](CCC(=O)O)C(=O)N[C@@H](CCCCN(CC(=O)O)CC(=O)O)C(=O)N[C@@H](CCCCNC(=O)COCCOCCNC(=O)CCCCCCCCCCCCCCC(=O)O)C(N)=O)NC(=O)[C@H](Cc2c[nH]c3ccccc23)NC(=O)[C@H](CCCNC(=N)N)NC(=O)[C@@H](Cc2ccccc2)NC(=O)[C@H](Cc2c[nH]cn2)NC1=O [Example 42, Ac-c[Orn-His-D-Phe-Arg-Trp-Asp]-Pro-Pro-Arg-Glu-Lys(biscarboxymethyl)-Lys({2-[2-(15-carboxypentadecanoylamino)ethoxy]ethoxy}acetyl)-NH2] (Ac-[Orn]H[dF]RWDPPRE[Lys(CH2CO2H)2]K([AEEA-C16 diacid])-NH2; lactam 1-6)
pH 4.9, Solubility Conc.
  solubility: 153 µM (≈ 331 µg/mL)
pH 5.8, Solubility Conc.
  solubility: 240 µM (≈ 519 µg/mL)
pH 6.4, Solubility Conc.
  solubility: 364 µM (≈ 787 µg/mL)
pH 6.7, Solubility Conc.
  solubility: 421 µM (≈ 910 µg/mL)
pH 7, Solubility Conc.
  solubility: 449 µM (≈ 971 µg/mL)
pH 7.2, Solubility Conc.
  solubility: 438 µM (≈ 947 µg/mL)
pH 7.5, Solubility Conc.
  solubility: 441 µM (≈ 954 µg/mL)
pH 7.9, Solubility Conc.
  solubility: 476 µM (≈ 1030 µg/mL)
pH 8.1, Solubility Conc.
  solubility: 417 µM (≈ 902 µg/mL)
